This note sets out measurements from US8980848B2, “Flavonoid dimers and their use” (The Hong Kong Polytechnic University, priority 2010, dated 2015).

The nature of data set [1]: Tumor cell line cytotoxicity of flavonoid dimers, LCC6MDR. The format is cell-based, human. The following applies: human, IC50 of compound alone. On the procedure: (§1) (b) Tumor Cell Line Cytotoxicity. The tumor cytotoxicity assays of flavonoid dimers were performed against LCC6, LCC6MDR and L929 cell lines. […] In brief, LCC6, LCC6MDR and L929 cells were seeded into 96-well flat bottom microtiter plate at 1×10^4 cells per well in a final volume of 100 μL media, respectively. A graded dose of flavonoid dimers was added into wells. The plate was incubated at 37° C. for 72 hrs at the atmosphere 5% CO2 in the air. The % of survivors was determined.

The nature of data set [2]: Tumor cell line cytotoxicity of flavonoid dimers, LCC6. It counts as cell-based, human. The following applies: human, IC50 of compound alone. On the procedure:
as §1

In data set [3] the target is Pgp (LCC6MDR cells) (Homo sapiens, UniProt P08183). Briefly: Cell proliferation assay: Pgp-modulating activity, reversal of anticancer drug resistance in LCC6MDR cells. The settings on record: for RF (Relative Fold), cpd at 0.5 μM: RF = (IC50 without modulator)/(IC50 with 0.5 μM modulator); for RF (Relative Fold), cpd at 0.5 μM / RF (Relative Fold), cpd at 1 μM: paclitaxel; for RF (Relative Fold), cpd at 0.5 μM / RF (Relative Fold), cpd at 1 μM / EC50: LCC6MDR; for RF (Relative Fold), cpd at 1 μM: RF = (IC50 without modulator)/(IC50 with 1.0 μM modulator); for EC50: EC50 of compounds for reversing anticancer drug resistance (nM); for Therapeutic index: IC50 of compounds for L929/EC50 of compounds for lowering paclitaxel drug resistance.
Experimental: Cell Proliferation Assay. 6,000 cells of LCC6 or LCC6MDR and anticancer drugs (paclitaxel, vinblastine, vincristine, doxorubicin and mitoxantrone) were mixed with or without modulators to a final volume of 200 μL in each well of 96-well plates. […] The plates were then incubated for 5 days at 37° C. […] IC50 values were calculated from the dose-response curves of MTS assays (Prism 4.0).

A short description of data set [4]: Cytotoxicity of flavonoid dimers, L929 mouse fibroblast. The following applies: mouse, IC50 of compound alone, 72 hrs, mouse fibroblast. It counts as cell-based. On the procedure: as §1

Chain of Pgp (LCC6MDR cells) (P08183 whole entry): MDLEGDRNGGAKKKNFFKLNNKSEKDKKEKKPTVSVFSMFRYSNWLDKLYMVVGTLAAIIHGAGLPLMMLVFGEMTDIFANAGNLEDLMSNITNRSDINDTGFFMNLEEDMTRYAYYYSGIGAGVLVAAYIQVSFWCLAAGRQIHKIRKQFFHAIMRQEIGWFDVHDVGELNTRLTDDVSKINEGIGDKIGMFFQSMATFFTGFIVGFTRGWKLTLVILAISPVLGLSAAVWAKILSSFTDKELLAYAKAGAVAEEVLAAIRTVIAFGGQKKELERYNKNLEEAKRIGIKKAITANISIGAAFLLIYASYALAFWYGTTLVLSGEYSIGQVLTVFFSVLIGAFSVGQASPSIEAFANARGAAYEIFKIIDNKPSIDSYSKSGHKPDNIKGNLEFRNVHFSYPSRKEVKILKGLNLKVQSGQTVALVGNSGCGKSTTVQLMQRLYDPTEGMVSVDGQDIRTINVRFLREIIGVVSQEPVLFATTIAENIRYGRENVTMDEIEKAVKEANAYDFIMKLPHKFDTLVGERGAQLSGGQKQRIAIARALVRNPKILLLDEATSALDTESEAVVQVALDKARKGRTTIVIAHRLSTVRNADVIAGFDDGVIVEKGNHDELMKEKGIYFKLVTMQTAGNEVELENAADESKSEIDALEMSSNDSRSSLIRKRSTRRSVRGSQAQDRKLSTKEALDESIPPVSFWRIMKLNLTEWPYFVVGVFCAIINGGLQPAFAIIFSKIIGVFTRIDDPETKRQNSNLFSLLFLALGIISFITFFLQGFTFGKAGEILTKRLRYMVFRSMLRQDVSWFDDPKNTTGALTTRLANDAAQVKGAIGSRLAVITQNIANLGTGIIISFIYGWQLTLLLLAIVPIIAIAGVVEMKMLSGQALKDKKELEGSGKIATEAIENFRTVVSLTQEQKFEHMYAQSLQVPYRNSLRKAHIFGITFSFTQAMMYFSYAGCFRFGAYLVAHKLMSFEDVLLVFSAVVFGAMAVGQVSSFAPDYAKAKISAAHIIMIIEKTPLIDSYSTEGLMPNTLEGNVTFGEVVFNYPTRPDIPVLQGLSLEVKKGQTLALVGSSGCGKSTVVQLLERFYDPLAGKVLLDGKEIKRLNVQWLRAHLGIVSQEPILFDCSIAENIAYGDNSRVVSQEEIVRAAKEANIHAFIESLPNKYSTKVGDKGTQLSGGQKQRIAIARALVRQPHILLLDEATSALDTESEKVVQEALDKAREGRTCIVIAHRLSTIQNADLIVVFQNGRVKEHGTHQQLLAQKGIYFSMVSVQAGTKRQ

For the compound `COc1cc(-c2cc(=O)c3ccccc3o2)ccc1OCCOCCNCCOCCOc1ccc(-c2cc(=O)c3ccccc3o2)cc1OC` [Compound 12b, 1,13-Bis[4′-((4H-chromen-4-on-2-yl)-3′-methoxyphenyl)]-1,4,10,13-tetraoxa-7-azamidecane], the values for the IC50 at 72 h in data set [1] (LCC6MDR cells) and in data set [2] (LCC6 cells) were 23.8 ± 12.8 µM and 12.8 ± 1.1 µM, respectively. For the same compound, the “RF (Relative Fold), cpd at 0.5 μM” value in data set [3] is “(0.8)”.

On to `Cc1ccc2oc(-c3ccc(OCCOCCNCCOCCOc4ccc(-c5cc(=O)c6cc(C)ccc6o5)cc4)cc3)cc(=O)c2c1` [Compound 12c, 1,13-Bis[4′-((6-methyl)-4H-chromen-4-on-2-yl)phenyl]-1,4,10,13-tetraoxa-7-azamidecane], for which the IC50 (commonly the concentration that inhibits the measured activity by half) at 72 h worked out at 7 ± 1.4 µM in data set [1] (LCC6MDR cells), 7.5 ± 0.9 µM in data set [2] (LCC6 cells) and 6 ± 0.6 µM in data set [4] (L929 fibroblast cells). The “RF (Relative Fold), cpd at 0.5 μM” value in data set [3] is on record as “(13.9)”.

On to `COc1cccc2oc(-c3ccc(OCCOCCNCCOCCOc4ccc(-c5cc(=O)c6c(OC)cccc6o5)cc4)cc3)cc(=O)c12` [Compound 12d, 1,13-Bis[4′-((5-methoxy)-4H-chromen-4-on-2-yl)phenyl]-1,4,10,13-tetraoxa-7-azamidecane], for which the IC50 at 72 h in data set [1] (LCC6MDR cells) was determined as 10.2 ± 3.8 µM; in data set [2] (LCC6 cells) it was 8.8 ± 2.7 µM. Also, in data set [3], the “RF (Relative Fold), cpd at 0.5 μM” value is “(1.2)”.

For `O=c1c(OCc2ccccc2)c(-c2ccc(OCCOCCNCCOCCOc3ccc(-c4oc5ccccc5c(=O)c4OCc4ccccc4)cc3)cc2)oc2ccccc12` [Compound 12e, 1,13-Bis[4′-((3-benzyloxy)-4H-chromen-4-on-2-yl)phenyl]-1,4,10,13-tetraoxa-7-azamidecane], the figures for the IC50 at 72 h in data set [1] (LCC6MDR cells), in data set [2] (LCC6 cells) and in data set [4] (L929 fibroblast cells) were 4.4 ± 0.1 µM, 4.3 ± 0.5 µM and 4.2 µM, respectively. In addition, the “RF (Relative Fold), cpd at 0.5 μM” value in data set [3] is given as “(54.7)”.

With `O=c1cc(-c2ccc(OCCOCCNCCOCCOc3ccc(-c4cc(=O)c5cc(F)ccc5o4)cc3)cc2)oc2ccc(F)cc12` [Compound 12f, 1,13-Bis[4′-((6-fluoro)-4H-chromen-4-on-2-yl)phenyl]-1,4,10,13-tetraoxa-7-azamidecane], the half-inhibitory concentration (IC50) at 72 h in data set [1] (LCC6MDR cells) was 3.3 ± 0.5 µM; in data set [2] (LCC6 cells), 5.3 ± 1 µM; in data set [4] (L929 fibroblast cells) it was 5.7 ± 0.4 µM. For the same compound, the “RF (Relative Fold), cpd at 0.5 μM” value in data set [3] was “(72.9)”. Further, the “RF (Relative Fold), cpd at 1 μM” value in data set [3] is recorded as “(109.4)”.

For the compound `COc1cc(-c2cc(=O)c3ccccc3o2)ccc1OCCOCCN(CCOCCOc1ccc(-c2cc(=O)c3ccccc3o2)cc1OC)C(=O)OC(C)(C)C` [Compound 16b, 1,13-Bis[4′-((4H-chromen-4-on-2-yl)-3′-methoxyphenyl)]-7-(tert-butylformyl)-1,4,10,13-tetraoxa-7-azamidecane], the figures for the concentration for half-maximal inhibition (IC50) at 72 h in data set [1] (LCC6MDR cells), in data set [2] (LCC6 cells) and in data set [4] (L929 fibroblast cells) were 6.9 ± 2.9 µM, 8.3 ± 1.4 µM and 33.3 µM, respectively. Further, the “RF (Relative Fold), cpd at 0.5 μM” value in data set [3] is reported as “(8.7)”.

On to `C[C@H](N)C(=O)N(CCOCCOc1ccc(-c2cc(=O)c3ccccc3o2)cc1)CCOCCOc1ccc(-c2cc(=O)c3ccccc3o2)cc1` [Compound 23b, 1,13-Bis[4′-(4H-chromen-4-on-2-yl)phenyl]-7-[(S)-2-amino-1-oxopropyl]-1,4,10,13-tetraoxa-7-azamidecane], for which the IC50 at 72 h in data set [1] (LCC6MDR cells) worked out at 4.6 ± 0.2 µM; in data set [2] (LCC6 cells), 4.4 µM. Also, the “RF (Relative Fold), cpd at 0.5 μM” value in data set [3] was “(1.0)”.

Turning to `O=C(c1ccccc1)N(CCOCCOc1ccc(-c2cc(=O)c3ccccc3o2)cc1)CCOCCOc1ccc(-c2cc(=O)c3ccccc3o2)cc1` [Compound 23d, 1,13-Bis[4′-(4H-chromen-4-on-2-yl)phenyl]-7-(benzoyl)-1,4,10,13-tetraoxa-7-azamidecane], the values for the IC50 at 72 h in data set [1] (LCC6MDR cells), in data set [2] (LCC6 cells) and in data set [4] (L929 fibroblast cells) were greater than 100 µM, greater than 100 µM and 95 µM, respectively. Moreover, in data set [3], the “RF (Relative Fold), cpd at 0.5 μM” value is recorded as “(7.5)”.

`CC(C)(C)CC(=O)N(CCOCCOc1ccc(-c2cc(=O)c3ccccc3o2)cc1)CCOCCOc1ccc(-c2cc(=O)c3ccccc3o2)cc1` [Compound 33, 1,13-Bis[4′-(4H-chromen-4-on-2-yl)phenyl]-7-(tert-butylacetyl)-1,4,10,13-tetraoxa-7-azamidecane]: the IC50 at 72 h in data set [1] (LCC6MDR cells), in data set [2] (LCC6 cells) and in data set [4] (L929 fibroblast cells) was greater than 100 µM in each case. In addition, the “RF (Relative Fold), cpd at 0.5 μM” value in data set [3] is on record as “(18.9)”.

On to `O=c1cc(-c2ccc(OCCOCCN(CCOCCOc3ccc(-c4cc(=O)c5ccccc5o4)cc3)Cc3ccc(C(F)(F)F)cc3)cc2)oc2ccccc12` [Compound 35, 1,13-Bis[4′-(4H-chromen-4-on-2-yl)phenyl]-7-(4-trifluoromethylbenzyl)-1,4,10,13-tetraoxa-7-azamidecane], for which the IC50 at 72 h was greater than 100 µM in data set [1] (LCC6MDR cells), greater than 100 µM in data set [2] (LCC6 cells) and 32.7 µM in data set [4] (L929 fibroblast cells). Also, the EC50 (in general, the midpoint of the concentration-response curve) in data set [3] (Paclitaxel) turned out to be 150 nM. Also, in data set [3], the Therapeutic index is given as 218.0. Also, the “RF (Relative Fold), cpd at 0.5 μM” value in data set [3] is listed as “(37.3)”.

Take `O=c1cc(-c2ccc(OCCOCCN(CCOCCOc3ccc(-c4cc(=O)c5ccccc5o4)cc3)Cc3ccc(F)cc3F)cc2)oc2ccccc12` [Compound 40, 1,13-Bis[4′-(4H-chromen-4-on-2-yl)phenyl]-7-(2,4-difluorobenzyl)-1,4,10,13-tetraoxa-7-azamidecane]: the IC50 at 72 h in data set [1] (LCC6MDR cells), in data set [2] (LCC6 cells) and in data set [4] (L929 fibroblast cells) was greater than 100 µM in each case. Besides, the EC50 in data set [3] (Paclitaxel) stood at 246 ± 66 nM. Further, in data set [3], the Therapeutic index is recorded as greater than 406.5. In data set [3], the “RF (Relative Fold), cpd at 0.5 μM” value was “(32.6)”. The “RF (Relative Fold), cpd at 1 μM” value in data set [3] is reported as “(117.8)”.

Consider `O=c1cc(-c2ccc(OCCOCCN(CCOCCOc3ccc(-c4cc(=O)c5ccccc5o4)cc3)Cc3c(F)cccc3F)cc2)oc2ccccc12` [Compound 41, 1,13-Bis[4′-(4H-chromen-4-on-2-yl)phenyl]-7-(2,6-difluorobenzyl)-1,4,10,13-tetraoxa-7-azamidecane], for which the IC50 at 72 h in data set [1] (LCC6MDR cells) is greater than 100 µM. Further, the IC50 at 72 h in data set [2] (LCC6 cells) was greater than 100 µM. In data set [4] (L929 fibroblast cells), this compound displayed an IC50 at 72 h greater than 100 µM. Besides, the EC50 in data set [3] (Paclitaxel) is 237 ± 91 nM. For the same compound, in data set [3], the Therapeutic index is greater than 421.9; the “RF (Relative Fold), cpd at 0.5 μM” value is given as “(34.0)”; the “RF (Relative Fold), cpd at 1 μM” value is listed as “(90.1)”.

For the compound `COc1ccc(CN(CCOCCOc2ccc(-c3cc(=O)c4ccccc4o3)cc2)CCOCCOc2ccc(-c3cc(=O)c4ccccc4o3)cc2)cc1` [Compound 42a, 1,13-Bis[4′-(4H-chromen-4-on-2-yl)phenyl]-7-(4-methoxybenzyl)-1,4,10,13-tetraoxa-7-azamidecane], the IC50 at 72 h in data set [1] (LCC6MDR cells) is greater than 100 µM; in data set [2] (LCC6 cells), greater than 91 µM; in data set [4] (L929 fibroblast cells), greater than 100 µM. Besides, the EC50 in data set [3] (Daunorubicin) came out at 61 ± 6 nM; in data set [3] (Doxorubicin), 63 ± 8 nM; in data set [3] (Mitoxantrone), 96 ± 27 nM; in data set [3] (Paclitaxel), 104 ± 7 nM; in data set [3] (Vinblasinte, vinblastine), 94 ± 13 nM; in data set [3] (Vincristine), 98 ± 5 nM. The Therapeutic index in data set [3] is greater than 961.5. In addition, in data set [3], the “RF (Relative Fold), cpd at 0.5 μM” value was “(61.2)”. For the same compound, the “RF (Relative Fold), cpd at 1 μM” value in data set [3] was “(117.8)”.

For the compound `O=c1cc(-c2ccc(OCCOCCN(CCOCCOc3ccc(-c4cc(=O)c5ccccc5o4)cc3)Cc3ccc(OC(F)(F)F)cc3)cc2)oc2ccccc12` [Compound 42b, 1,13-Bis[4′-(4H-chromen-4-on-2-yl)phenyl]-7-(4-trifluoromethoxybenzyl)-1,4,10,13-tetraoxa-7-azamidecane], the concentration for half-maximal inhibition (IC50) at 72 h was greater than 100 µM in data set [1] (LCC6MDR cells), greater than 100 µM in data set [2] (LCC6 cells) and greater than 83 µM in data set [4] (L929 fibroblast cells). Besides, in data set [3], the “RF (Relative Fold), cpd at 0.5 μM” value is “(3.8)”. Further, in data set [3], the “RF (Relative Fold), cpd at 1 μM” value is recorded as “(47.8)”.

Regarding `CC(=O)Oc1ccc(CN(CCOCCOc2ccc(-c3cc(=O)c4ccccc4o3)cc2)CCOCCOc2ccc(-c3cc(=O)c4ccccc4o3)cc2)cc1` [Compound 42c, 1,13-Bis[4′-(4H-chromen-4-on-2-yl)phenyl]-7-(4-acetyloxybenzyl)-1,4,10,13-tetraoxa-7-azamidecane], the IC50 at 72 h came out at 5.9 ± 0.7 µM in data set [1] (LCC6MDR cells), 6.6 ± 1 µM in data set [2] (LCC6 cells) and 4.5 ± 0.1 µM in data set [4] (L929 fibroblast cells). Also, in data set [3] (Paclitaxel), the EC50 worked out at 140 ± 12 nM. For the same compound, the Therapeutic index in data set [3] turned out to be 32.1. Also, in data set [3], the “RF (Relative Fold), cpd at 0.5 μM” value is given as “(95.7)”. The “RF (Relative Fold), cpd at 1 μM” value in data set [3] is reported as “(117.8)”.

For the compound `C/C=C/C[C@@H](C)C(=O)[C@H]1C(=O)N[C@@H](C(C)C)C(=O)N(C)CC(=O)N(C)[C@@H](CC(C)C)C(=O)N[C@@H](C(C)C)C(=O)N(C)[C@@H](CC(C)C)C(=O)N[C@@H](C)C(=O)N[C@H](C)C(=O)N(C)[C@@H](CC(C)C)C(=O)N(C)[C@@H](CC(C)C)C(=O)N(C)[C@@H](C(C)C)C(=O)N1C` [PSC833, reference compound], the IC50 at 72 h was 14.6 ± 2.2 µM in data set [1], 25.3 ± 4.3 µM in data set [2] and greater than 100 µM in data set [4].
